This is an account of results in patent publication US20140171417A1, “TRICYCLIC COMPOUNDS” (NOVARTIS AG, priority 2012, published 2014).

In the experiment the target is T1, CFTR (Homo sapiens, UniProt P13569).
T1 construct: expressed in transfected cells
The experiment in a line: IonWorks Quattro assay (CFTR Inhibitor Assay), whole-cell planar patch clamp. The class given is cell-based. The conditions noted are these: inward current (−100 mV); CHO cells stably expressing WT-CFTR; CFTR activated by 10 μM forskolin; test compound incubated 10 min.

T1 sequence (P13569 whole entry): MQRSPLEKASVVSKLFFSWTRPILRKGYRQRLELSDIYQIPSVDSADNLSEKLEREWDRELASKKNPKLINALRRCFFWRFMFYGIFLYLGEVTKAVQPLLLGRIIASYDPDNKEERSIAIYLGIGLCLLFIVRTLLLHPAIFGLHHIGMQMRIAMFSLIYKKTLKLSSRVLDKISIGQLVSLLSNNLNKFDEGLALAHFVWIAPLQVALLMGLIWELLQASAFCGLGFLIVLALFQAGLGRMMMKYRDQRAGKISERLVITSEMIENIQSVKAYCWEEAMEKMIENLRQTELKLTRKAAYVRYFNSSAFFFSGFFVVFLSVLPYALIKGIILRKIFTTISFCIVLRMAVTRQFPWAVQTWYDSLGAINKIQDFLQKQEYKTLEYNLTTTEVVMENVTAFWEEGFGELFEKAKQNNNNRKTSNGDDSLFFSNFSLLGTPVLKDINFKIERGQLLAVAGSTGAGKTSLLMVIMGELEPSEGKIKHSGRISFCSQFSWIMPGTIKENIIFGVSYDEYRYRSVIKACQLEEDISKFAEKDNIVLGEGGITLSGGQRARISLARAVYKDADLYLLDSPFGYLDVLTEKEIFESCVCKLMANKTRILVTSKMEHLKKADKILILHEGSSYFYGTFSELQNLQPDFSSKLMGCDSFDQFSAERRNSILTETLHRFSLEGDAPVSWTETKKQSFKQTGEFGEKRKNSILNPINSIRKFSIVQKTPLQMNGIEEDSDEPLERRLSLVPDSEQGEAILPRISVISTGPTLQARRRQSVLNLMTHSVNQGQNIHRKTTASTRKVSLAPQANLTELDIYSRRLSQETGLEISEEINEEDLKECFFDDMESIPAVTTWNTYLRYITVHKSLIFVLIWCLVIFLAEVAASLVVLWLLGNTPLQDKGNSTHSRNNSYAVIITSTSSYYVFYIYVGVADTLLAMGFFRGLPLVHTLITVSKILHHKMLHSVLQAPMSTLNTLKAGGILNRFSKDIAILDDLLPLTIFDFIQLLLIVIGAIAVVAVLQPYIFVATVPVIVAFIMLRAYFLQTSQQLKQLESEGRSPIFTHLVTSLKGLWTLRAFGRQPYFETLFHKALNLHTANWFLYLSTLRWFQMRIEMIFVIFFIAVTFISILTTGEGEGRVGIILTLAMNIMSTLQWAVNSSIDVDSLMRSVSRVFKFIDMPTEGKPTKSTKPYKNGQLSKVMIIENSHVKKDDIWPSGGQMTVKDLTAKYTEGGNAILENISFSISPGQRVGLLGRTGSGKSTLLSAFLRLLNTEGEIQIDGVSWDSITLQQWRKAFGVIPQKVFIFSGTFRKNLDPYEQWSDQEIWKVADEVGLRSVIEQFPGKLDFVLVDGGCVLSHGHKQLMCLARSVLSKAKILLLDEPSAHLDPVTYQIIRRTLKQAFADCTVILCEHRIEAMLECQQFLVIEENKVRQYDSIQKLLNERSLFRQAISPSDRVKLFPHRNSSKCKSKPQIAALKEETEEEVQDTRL

Take `CCn1c(=O)c2c(-c3ccccc3)n3c(c2n(CC)c1=O)C(c1ccc(Cl)o1)SCC3` (single isomer, unassigned) [Example 4.2, 10-(5-Chlorofuran-2-yl)-1,3-diethyl-5-phenyl-7,8-dihydro-1H-pyrimido[4′,5′:3,4]pyrrolo[2,1-c][1,4]thiazine-2,4(3H,10H)-dione]: the midpoint of inhibition, the IC50, lay at 1.67 µM.

`Cc1csc(-c2c3c(=O)n(C)c(=O)n(C)c3c3n2C[C@H](CO)S[C@H]3c2ccc(Cl)o2)n1` (single isomer, unassigned) [Example 17, 10-(5-chlorofuran-2-yl)-8-(hydroxymethyl)-1,3-dimethyl-5-(4-methylthiazol-2-yl)-7,8-dihydro-1H-pyrimido[4′,5′:3,4]pyrrolo[2,1-c][1,4]thiazine-2,4(3H,10H)-dione] returned a concentration for half-maximal inhibition (IC50) of 0.1 µM. Compound `Cc1ccc(C2SC[C@H](CN(C)C)n3c(-c4ccccc4)c4c(=O)n(C)c(=O)n(C)c4c32)o1` (single isomer, unassigned) [Example 2.1, 7-((dimethylamino)methyl)-1,3-dimethyl-10-(5-methylfuran-2-yl)-5-phenyl-7,8-dihydro-1H-pyrimido[4′,5′:3,4]pyrrolo[2,1-c][1,4]thiazine-2,4(3H,10H)-dione] had an IC50 of 0.41 µM. Turning to `Cn1c(=O)c2c(-c3cccc(C#N)c3)n3c(c2n(C)c1=O)C(c1ccc(Cl)o1)SCC3` (single isomer, unassigned) [Example 3.5, 3-(10-(5-chlorofuran-2-yl)-1,3-dimethyl-2,4-dioxo-2,3,4,7,8,10-hexahydro-1H-pyrimido[4′,5′:3,4]pyrrolo[2,1-c][1,4]thiazin-5-yl)benzonitrile], the IC50 is 0.16 µM.

Take `Cc1ccc(C2CCn3c(-c4ccccc4)c4c(=O)n(C)c(=O)n(C)c4c32)o1` (racemic) [Example 11.0, 1,3-Dimethyl-9-(5-methylfuran-2-yl)-5-phenyl-8,9-dihydro-1H-pyrimido[4,5-a]pyrrolizine-2,4(3H,7H)-dione]: the IC50 amounted to 9.14 µM. The result for `Cn1c(=O)c2c(-c3cccc(C#N)c3)n3c(c2n(C)c1=O)[C@H](c1nc(Cl)cs1)CCC3` [Example 13a, (R)-3-(10-(4-chlorothiazol-2-yl)-1,3-dimethyl-2,4-dioxo-1,2,3,4,7,8,9,10-octahydropyrimido[4,5-a]indolizin-5-yl)benzonitrile] reads 0.07 µM. To `Cn1c(=O)c2c(-c3cccc(C#N)c3)n3c(c2n(C)c1=O)C(c1nc(Cl)cs1)CC3` (single isomer, unassigned) [Example 20a, 3-(9-(4-chlorothiazol-2-yl)-1,3-dimethyl-2,4-dioxo-2,3,4,7,8,9-hexahydro-1H-pyrimido[4,5-a]pyrrolizin-5-yl)benzonitrile] belongs 0.27 µM. In the case of `Cn1c(=O)c2c(-c3cccc(F)c3)n3c(c2n(C)c1=O)[C@H](c1ccc(Cl)o1)S[C@@H](CO)C3` (single isomer, unassigned) [Example 12.1b, 10-(5-chlorofuran-2-yl)-5-(3-fluorophenyl)-8-(hydroxymethyl)-1,3-dimethyl-7,8-dihydro-1H-pyrimido[4′,5′:3,4]pyrrolo[2,1-c][1,4]thiazine-2,4(3H,10H)-dione], the 50% inhibitory concentration (IC50) amounted to 0.18 µM.
